Source: US20060160841A1, “Crystallization via high-shear transformation” (priority 2005, published 2006)

Assay: Particle size D[90] of crystals before and after polymorph transformation
Type: physicochemical

Row | particle size D[90] (Example 1, needle-shaped crystals formed in vessel B on adding PG solution to water/PG anti-solvent at 10 to 20° C., before recirculation) | particle size D[90] (Example 1, small granular crystals after about 24 hours of recirculation through inline homogenization apparatus) | particle size D[90] (Example 2, small granular crystals after about 30 hours of recirculation by pump through outlet and inlet of vessel B) | particle size D[90] (Example 3, N-1 seeded, overhead homogenizer in transient vessel at 55-65° C., continuous transfer, filtered and dried) | SMILES
1 | greater than 160 μm |  |  |  | COc1ccc(-n2nc(C(N)=O)c3c2C(=O)N(c2ccc(N4CCCCC4=O)cc2)CC3)cc1 [H2-2, 1-(4-methoxyphenyl)-7-oxo-6-(4-(2-oxopiperidin-1-yl)phenyl)-4,5,6,7-tetrahydro-1H-pyrazolo[3,4-c]pyridine-3-carboxamide]
2 |  | less than 20 μm | less than 20 μm | less than 20 μm | COc1ccc(-n2nc(C(N)=O)c3c2C(=O)N(c2ccc(N4CCCCC4=O)cc2)CC3)cc1 [N-1, 1-(4-methoxyphenyl)-7-oxo-6-(4-(2-oxopiperidin-1-yl)phenyl)-4,5,6,7-tetrahydro-1H-pyrazolo[3,4-c]pyridine-3-carboxamide]
